According to patent US9364458B2, “Stabilized pharmaceutical dosage forms comprising atrasentan” (AbbVie Inc., priority 2013, dated 2016):
Where a name gives a salt, the structure may show the parent alone.

Tests used:
[1] = tested on: subjects with diabetic nephropathy; experiment: Phase IIb clinical trials of atrasentan; assay type: in vivo, human
From the text: The low dosing and the narrow therapeutic window for atrasentan have been confirmed through analysis of the data collected from recent Phase IIb clinical trials in subjects with diabetic nephropathy. These Phase IIb clinical trials evaluated the safety and efficacy of atrasentan to identify an appropriate balance between the systemic effects of atrasentan (which can lead to adverse side effects such as edema) and the efficacy effects of atrasentan. […] Reduction of residual albuminuria and the urinary-albumin-to-creatine ratio are surrogate endpoints generally associated with delaying the progression of end-stage renal disease and associated cardiovascular complications.

[2] = Impurities / degradation products by HPLC in stability testing; assay type: physicochemical; settings: mixtures with atrasentan and crospovidone, 80° C.
[3] = Dispersive surface energy by inverse gas chromatography; assay type: physicochemical
Experimental: Wet granulation blends prepared as described in Method 2 (atrasentan added dry to granulation bowl) and Method 3 (atrasentan added as HPMC suspension to granulation bowl) of Example 6 were analyzed prior to compression using inverse gas chromatography (“IGC”) to determine the surface energy of the blends. These measurements were compared to the measured values for pure atrasentan and pure HPMC.

[4] = about 0.25 mg to about 1.25 mg daily
[5] = daily dose greater than about 1.25 mg

SMILES: CCCCN(CCCC)C(=O)CN1C[C@H](c2ccc3c(c2)OCO3)[C@@H](C(=O)O)[C@@H]1c1ccc(OC)cc1 [atrasentan, (2R,3R,4S)-4-(1,3-benzodioxol-5-yl)-1-[2-(dibutylamino)-2-oxoethyl]-2-(4-methoxyphenyl)pyrrolidine-3-carboxylic acid]
- residual albuminuria [1, 4]: significantly reduce
- urinary-albumin-to-creatine ratio [1, 4]: significantly reduce
- adverse effects, particularly peripheral edema [1, 5]: increase in adverse effects
- efficacy relative to the 1.25 mg daily dose [1, 5]: without any further improvement in efficacy
- efficacy of daily dose ([1]; daily dose less than about 0.25 mg): sub-therapeutic

SMILES: Cl.N[C@@H](CS)C(=O)O.O [L-cysteine hydrochloride monohydrate]
- stabilizing effect among the three anti-oxidants [2]: greatest stabilizing effect

SMILES: CCCCN(CCCC)C(=O)CN1C[C@H](c2ccc3c(c2)OCO3)[C@@H](C(=O)O)[C@@H]1c1ccc(OC)cc1 [Atrasentan Monohydrochloride]
- DISPERSIVE SURFACE ENERGY ([3]; Average): 50.9 mJ · m^−2
- DISPERSIVE SURFACE ENERGY ([3]; Run 1): 50.6 mJ · m^−2
- DISPERSIVE SURFACE ENERGY ([3]; Run 2): 51.4 mJ · m^−2
